From patent publication US7557213B2, “Substituted quinolones and methods of use” (ChemoCentryx, Inc., priority 2005, dated 2009)
Read-outs that look alike come from different tables or passages of the source.

Molecular target: T1, CCXCKR2 receptor (Homo sapiens, UniProt P25106)
T1 construct: expressed in transfected cells; host or cells: MDA-MB-435S transfected with pcDNA3.1(+)-hRDC1 and/or MCF-7 (endogenous receptor)
Assay: Displacement of 125I-labeled SDF-1 from the CCXCKR2 receptor on MCF-7 and/or CCXCKR2-transfected MDA-MB-435S cells (radioligand binding, filtration)

[1] = 125I SDF-1, 3 hr at 4° C., MCF-7 and/or MDA-MB-435S cells, read-out: Activity (concentration displacing at least 50% of the SDF-1 from the CCXCKR2 receptor)

T1 sequence (P25106 whole entry): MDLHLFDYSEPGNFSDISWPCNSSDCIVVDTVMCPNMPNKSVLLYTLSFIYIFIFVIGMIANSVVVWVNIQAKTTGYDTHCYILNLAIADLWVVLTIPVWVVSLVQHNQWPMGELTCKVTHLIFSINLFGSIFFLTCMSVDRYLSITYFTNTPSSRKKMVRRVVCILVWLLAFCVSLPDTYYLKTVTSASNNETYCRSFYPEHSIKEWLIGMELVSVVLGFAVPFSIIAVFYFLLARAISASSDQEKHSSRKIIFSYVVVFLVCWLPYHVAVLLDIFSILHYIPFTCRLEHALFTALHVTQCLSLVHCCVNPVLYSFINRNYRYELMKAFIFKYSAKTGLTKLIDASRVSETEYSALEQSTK

| SMILES | IC50 [1] [nM] | IC50 [nM] |
| --- | --- | --- |
| CC(C)(C)c1ccc(C(=O)c2cn(Cc3cccc(Br)n3)c3ccccc3c2=O)cc1 [Example 114] | < 100 | – |
| O=C(O)c1ccccc1C(=O)c1cn(Cc2cccc(Br)n2)c2ccccc2c1=O [Example 138] | < 100 | – |
| CN(C)Cc1ccccc1C(=O)c1cn(Cc2cccc(Br)n2)c2ccccc2c1=O [Example 129] | < 100 | – |
| Cc1cc(C(=O)c2cn(Cc3cccc(C(F)(F)F)n3)c3ccccc3c2=O)cnc1C [Example 82] | < 100 | – |
| COc1ncc(C(=O)c2cn(Cc3cccc(Cl)c3)c3ccccc3c2=O)cc1C [Example 240] | < 100 | – |
| Cc1ccc(C(=O)c2cn(Cc3ccccc3F)c3ccncc3c2=O)cc1C [Example 46] | 500 to 20000 | – |
| Cc1ccc(C(=O)c2cn(Cc3cccc(C#N)n3)c3ccccc3c2=O)nc1C [Example 80] | < 100 | – |
| Cc1cccc(Cn2cc(C(=O)c3ccc(C)c(C)n3)c(=O)c3ccccc32)n1 [Example 96] | < 100 | – |
| O=C(c1ccc(Cl)c(Cl)c1)c1cn(Cc2cccc(Br)n2)c2ccccc2c1=O [Example 100] | < 100 | – |
| COc1ccc(C(=O)c2cn(Cc3cccc(C)n3)c3ncccc3c2=O)cc1 [Example 161] | < 100 | – |
| Cc1cccc(Cn2cc(C(=O)c3ccc(C)c(C)c3)c(=O)c3ncccc32)n1 [Example 134] | < 100 | – |
| Cc1cc(C(=O)c2cn(Cc3cccc(NC4CC4)n3)c3ccccc3c2=O)cnc1C [Example 110] | 500 to 20000 | – |
| COc1ncc(C(=O)c2cn(Cc3cccc(Br)n3)c3ccccc3c2=O)cc1C [Example 198] | < 100 | – |
| Cc1cccnc1C(=O)c1cn(Cc2cccc(Br)n2)c2ccccc2c1=O [Example 149] | 100 to 500 | – |
| CNc1cccc(Cn2cc(C(=O)c3ccc(C)c(C)c3)c(=O)c3ccccc32)n1 [Example 93] | < 100 | – |
| Cc1ccc(C(=O)c2cn(Cc3ncon3)c3ccccc3c2=O)cc1C [Example 29] | < 100 | – |
| COc1ccc(C(=O)c2cn(Cc3cccc(Br)n3)c3ccccc3c2=O)cc1C(=O)N(C)C [Example 181] | 500 to 20000 | – |
| COc1ccc(C(=O)c2cn(Cc3cccc(Br)n3)c3nc(C)ccc3c2=O)cc1C [Example 143] | < 100 | – |
| Cc1ccc(C(=O)c2cn(Cc3cccc(-c4ccccc4)n3)c3ccccc3c2=O)cc1C [Example 42] | 100 to 500 | – |
| Cc1cccc(Cn2cc(C(=O)c3ccc(C)c(C)c3)c(=O)c3ccccc32)c1 [Example 9] | – | < 100 |
| CNC(=O)c1ccccc1C(=O)c1cn(Cc2cccc(Br)n2)c2ccccc2c1=O [Example 169] | 500 to 20000 | – |
| O=C(c1ccc2c(c1)CCO2)c1cn(Cc2cccc(Br)n2)c2ccccc2c1=O [Example 131] | < 100 | – |
| Cc1cccc(Cn2cc(C(=O)c3cnc(C)c(C)c3)c(=O)c3ccccc32)n1 [Example 50] | < 100 | – |
| O=C(c1ccccc1C(=O)N1CCC1)c1cn(Cc2cccc(Br)n2)c2ccccc2c1=O [Example 171] | < 100 | – |
| COc1ccc(C(=O)c2cn(Cc3cccc(C(F)(F)F)n3)c3ncccc3c2=O)cc1C [Example 195] | < 100 | – |
| Cc1ccc(C)c(C(=O)c2cn(Cc3cccc(Br)n3)c3ccccc3c2=O)c1 [Example 102] | < 100 | – |
| Cc1cc(C(=O)c2cn(Cc3cccc(C#N)n3)c3ccccc3c2=O)cnc1C [Example 85] | < 100 | – |

| SMILES | IC50 [1] [nM] | IC50 [nM] |
| --- | --- | --- |
| Cc1cccc(Cn2cc(C(=O)c3cccc(C)c3)c(=O)c3ccccc32)c1 [Example 20] | – | < 100 |
| Cc1ccc(C(=O)c2cn(Cc3cccc(Br)n3)c3ccccc3c2=O)nc1 [Example 151] | < 100 | – |
| Cc1ccc(C(=O)c2cn(Cc3cccnc3)c3cc4c(cc3c2=O)OCO4)cc1C [Example 2] | 500 to 20000 | – |
| Nc1cccc(Cn2cc(C(=O)c3ccc4c(c3)OCCO4)c(=O)c3ccccc32)n1 [Example 230] | 100 to 500 | – |
| Cc1ccc(C(=O)c2cn(Cc3cccc(C(F)(F)F)n3)c3ccccc3c2=O)nc1C [Example 79] | < 100 | – |
| CNCc1cccc(Cn2cc(C(=O)c3ccc(C)c(C)c3)c(=O)c3ccccc32)n1 [Example 117] | 500 to 20000 | – |
| O=C(c1ccc(O)nc1)c1cn(Cc2cccc(Br)n2)c2ccccc2c1=O [Example 210] | 500 to 20000 | – |
| CCN(CC)c1ccc(C(=O)c2cn(Cc3cccc(Br)c3)c3ccccc3c2=O)cn1 [Example 235] | < 100 | – |
| COc1ccc(C(=O)c2cn(Cc3cccc(Br)n3)c3ccccc3c2=O)c(C)c1 [Example 178] | < 100 | – |
| Cc1ccc(C(=O)c2cn(Cc3cccc(C(F)(F)F)n3)c3ccccc3c2=O)cc1C [Example 66] | < 100 | – |
| Cc1ccc(C(=O)c2cn(Cc3ccccc3C(F)(F)F)c3ccccc3c2=O)cc1C [Example 36] | 500 to 20000 | – |
| Cc1cccc(Cn2cc(C(=O)c3ccccc3)c(=O)c3ccccc32)c1 [Example 18] | 100 to 500 | – |
| COc1ccc(C(=O)c2cn(Cc3cccc(C)n3)c3cccnc3c2=O)cc1C [Example 206] | 500 to 20000 | – |
| O=C(c1ccc(C2OCCCO2)cc1)c1cn(Cc2cccc(Br)n2)c2ccccc2c1=O [Example 137] | 100 to 500 | – |
| Cc1ccc(C(=O)c2cn(Cc3cccc(C(N)=O)n3)c3ccccc3c2=O)cc1C [Example 86] | 500 to 20000 | – |
| O=C(c1ccc(CN2CCOCC2)cc1)c1cn(Cc2cccc(Br)n2)c2ccccc2c1=O [Example 123] | 500 to 20000 | – |
| Cc1cccc(Cn2cc(C(=O)c3cccnc3)c(=O)c3ccccc32)c1 [Example 34, 1-(3-Methyl-benzyl)-3-(pyridine-3-carbonyl)-1H-quinolin-4-one] | 500 to 20000 | – |
| Cc1ccc2c(=O)c(C(=O)c3ccc4c(c3)OCCO4)cn(Cc3cccc(Br)n3)c2n1 [Example 142] | < 100 | – |
| CCc1ccc(C(=O)c2cn(Cc3cccc(Br)n3)c3ccccc3c2=O)cn1 [Example 154] | < 100 | – |
| Cc1ccc(C(=O)c2cn(CCc3ccccc3)c3ccccc3c2=O)cc1C [Example 27, 3-(3,4-Dimethyl-benzoyl)-1-phenethyl-1H-quinolin-4-one] | 500 to 20000 | – |
| Cc1cccc(Cn2cc(C(=O)c3ccc(C)c(C)c3)c(=O)c3ccc(C)nc32)n1 [Example 107] | < 100 | – |
| Cc1ccc(C(=O)c2cn(Cc3cccc(C)c3F)c3ccccc3c2=O)cc1C [Example 45] | < 100 | – |
| Cc1ccc(C(=O)c2cn(Cc3cccc(C#N)n3)c3ccccc3c2=O)cc1C [Example 81] | < 100 | – |
| COc1ccc(C(=O)c2cn(Cc3cccc(C(F)(F)F)n3)c3ccccc3c2=O)cc1C [Example 202] | < 100 | – |
| COc1cccc(Cn2cc(C(=O)c3ccc(C)c(C)c3)c(=O)c3ccccc32)n1 [Example 69] | < 100 | – |
| O=C(c1ccc(Cl)c(F)c1)c1cn(Cc2cccc(Br)n2)c2ccccc2c1=O [Example 179] | < 100 | – |
| COc1ccc(C(=O)c2cn(Cc3cccc(C)n3)c3nc(C)c(C)cc3c2=O)cc1F [Example 199] | 500 to 20000 | – |

| SMILES | IC50 [1] [nM] | IC50 [nM] |
| --- | --- | --- |
| CN(C)c1ccc(C(=O)c2cn(Cc3cccc(Br)n3)c3ccccc3c2=O)cn1 [Example 197] | < 100 | – |
| Cc1ccc(C(=O)c2cn(Cc3cscn3)c3ccccc3c2=O)cc1C [Example 31] | < 100 | – |
| COc1ccc(C(=O)c2cn(Cc3cccc(C)n3)c3ncccc3c2=O)cc1F [Example 163] | < 100 | – |
| Cc1ccc(C(=O)c2cn(Cc3cccc(C)n3)c3ccccc3c2=O)nc1 [Example 221] | 500 to 20000 | – |
| Cc1ccc(C(=O)c2cn(Cc3cccc(NS(C)(=O)=O)n3)c3ccccc3c2=O)cc1C [Example 60] | 100 to 500 | – |
| Cc1cccc(Cn2cc(C(=O)c3cnccn3)c(=O)c3ccccc32)n1 [Example 63] | 500 to 20000 | – |
| O=C(c1ccc(C(F)(F)F)nc1)c1cn(Cc2cccc(Br)c2)c2ccccc2c1=O [Example 224] | 500 to 20000 | – |
| COCCOc1ccc(C(=O)c2cn(Cc3cccc(Br)n3)c3ccccc3c2=O)cc1C [Example 127] | 100 to 500 | – |
| Cc1cccc(Cn2cc(C(=O)c3ccc(N(C)C)cc3)c(=O)c3ccccc32)n1 [Example 158] | < 100 | – |
| Cc1ccc(C(=O)c2cn(Cc3ccccn3)c3cc4c(cc3c2=O)OCO4)cc1C [Example 1] | 100 to 500 | – |
| O=C(c1ccccc1C1OCCCO1)c1cn(Cc2cccc(Br)n2)c2ccccc2c1=O [Example 126] | < 100 | – |
| Cc1cc(C(=O)c2cn(Cc3cccc(Br)n3)c3ccccc3c2=O)cnc1C [Example 54] | < 100 | – |
| Cc1ccc(C(=O)c2cn(Cc3cccc(Br)n3)c3ccccc3c2=O)c(C)c1 [Example 101] | < 100 | – |
| Cc1cccc(C(=O)c2cn(Cc3ccccc3F)c3ccccc3c2=O)c1 [Example 21] | < 100 | – |
| Cc1ccc(C(=O)c2cn(Cc3cccc(F)n3)c3ccccc3c2=O)cc1C [Example 70] | – | < 100 |
| Cc1cccc(Cn2cc(C(=O)c3ccc(Cl)cc3)c(=O)c3ccccc32)n1 [Example 184] | < 100 | – |
| N#Cc1cccc(Cn2cc(C(=O)c3ccc4c(c3)OCCO4)c(=O)c3ccccc32)n1 [Example 228] | < 100 | – |
| Cc1ccc(C(=O)c2cn(Cc3cccc(N(C)C)n3)c3ccccc3c2=O)cc1C [Example 92] | 500 to 20000 | – |
| Cc1cccc(Cn2cc(C(=O)c3ccc(C)c(C)c3)c(=O)c3nc(C)ccc32)n1 [Example 130] | < 100 | – |
| Cc1cccc(Cn2cc(C(=O)c3cc(C)on3)c(=O)c3ccccc32)n1 [Example 208] | 500 to 20000 | – |
| Cc1ccc(C(=O)c2cn(Cc3ccccc3C)c3cc4c(cc3c2=O)OCCO4)cc1C [Example 6] | 500 to 20000 | – |
| Cc1ccc(C(=O)c2cn(Cc3ccccn3)c3ccccc3c2=O)cc1C [Example 8] | < 100 | – |
| Cc1ccc(C(=O)c2cn(Cc3cccc(Br)n3)c3nc(C)c(C)cc3c2=O)cc1C [Example 159] | < 100 | – |
| O=C(NC1CC1)c1ccccc1C(=O)c1cn(Cc2cccc(Br)n2)c2ccccc2c1=O [Example 170] | 500 to 20000 | – |
| Cc1cccc(C(=O)c2cn(Cc3cccc(Br)n3)c3ccccc3c2=O)n1 [Example 122] | 100 to 500 | – |
